These results are taken from publication PMC9002265, “A New Series of Strigolactone Analogs Derived From Cinnamic Acids as Germination Inducers for Root Parasitic Plants” (Frontiers in Plant Science, 2022).

One assay has as its system Arabidopsis max4 mutant. The experiment in a line: Shoot branching assay, hydroponic culture. The format is in vivo. The conditions noted are these: 1 μM in hydroponic culture. The protocol: Sterilized seeds of the Arabidopsis max4-8 mutant were put on the rockwool which was soaked in Noren’s hydroponic solution ([Noren et al., 2004]) and cultured at 22°C for 14 days under LED light (105 μmol/m^2/s) with a 16 h light/8 h dark photoperiod. Seedlings were transferred to a plastic pot containing 800 ml of hydroponic culture and grown under the same conditions for additional 15 or 16 days. Test compounds were dissolved in acetone and added to hydroponic culture. The final concentration of test compounds was 1 or 5 μM and acetone was adjusted to 0.01% (v/v). The hydroponic culture was renewed after 7 days. The number of rosette branches (>5 mm) was counted. In the experience at 5 μM concentration, fresh weight of shoot was also measured to evaluate the side effects of tested compounds.

In a further assay the test system is Striga hermonthica seeds. Further details: method as in Uraguchi et al., 2018. The conditions noted are these: ref Uraguchi et al., 2018; cited from earlier work.

Turning to `CC1=CC(O/C=C2\CCOC2=O)OC1=O` (centres unmarked) [GR5], the “shoot branching inhibition of max4” value in the assay with Arabidopsis max4 mutant is “clearly inhibited shoot branching”.
Turning to `CCCCOc1ccc(S(=O)(=O)N2CCN(C(=O)OC3C=C(C)C(=O)O3)CC2)cc1` (centres unmarked) [SPL7, sphynolactone-7], in the assay with Striga hermonthica seeds, the “concentration inducing S. hermonthica germination” value was “fM concentrations”.
